Counter-ions that a name gives are not always drawn.
Tests used:
[1] = tested on: HCT116; test: AC50 cell viability (CellTiter-Glo); higher = less potent; settings: 48 h
[2] = tested on: HCT116; test: efficacy (fitted maximal change in viability relative to DMSO control); higher = less cytotoxic (negative = loss of viability); settings: 48 h
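Throughout, for AC50 cell viability (CellTiter-Glo): HCT116 colorectal carcinoma cells screened at five concentrations per compound, luminescent viability scaled between DMSO wells and empty wells on each plate, curves fitted per compound.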
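Throughout, for efficacy (fitted maximal change in viability relative to DMSO control): Luminescence-based viability readout, five doses per compound, normalized against on-plate DMSO and empty-well controls, followed by dose-response curve fitting for every drug.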

| SMILES | AC50 cell viability [1] | efficacy [2] |
| --- | --- | --- |
| Cc1c(NC(=O)c2cc(C(N)=O)nc3cc(F)ccc23)c(C(F)(F)F)nn1Cc1ccc(C#N)cc1 [BAY-876] | 4.68 µM | -89.3% |
| COc1cccc2cc(-c3nc([C@H]4CC[C@H](C(=O)O)CC4)n4ncnc(N)c34)[nH]c12 [OSI-027] | 11.8 µM | -94.5% |
| COc1ccc(/C=C\c2cc(OC)c(OC)c(OC)c2)cc1NC(=O)[C@H](N)CO [Ombrabulin] | 0.148 µM | -62.9% |
| OC1=CC=C(C=C1)C/2=C/C3=C(OC2)C=C(O)C=C3 [Idronoxil] | 3.72 µM | -73.9% |
| [2H]C([2H])([2H])C(O)([C@@H](C)/C=C/[C@@H](C)[C@H]1CC[C@H]2/C(=C/C=C3C[C@@H](O)C[C@H](O)C3)CCC[C@]12C)C([2H])([2H])[2H] [Paricalcitol-D6 (ABT-358)] | 18.6 µM | -54% |
| COC(=O)Nc1nc2cc([S+]([O-])c3ccccc3)ccc2[nH]1 (stereo unspecified) [Oxfendazole] | 6.61 µM | -47.9% |
| C[N]1C=NC=C1C(N)(C2=CC=C(Cl)C=C2)C3=CC\4=C(C=C3)N(C)C(=O)\C=C4C5=CC(=CC=C5)Cl (stereo unspecified) [Tipifarnib,Freebase] | 20.9 µM | -120% |
| COc1ccc(-c2oc3ncnc(N)c3c2-c2ccc(NC(=O)Nc3cc(C(F)(F)F)ccc3F)cc2)cc1 | 4.68 µM | -70.5% |
| CC(C)(NC(=O)O[C@@H]1CN2CCC1CC2)c1csc(-c2ccc(F)cc2)n1 [Ibiglustat] | 18.6 µM | -43.3% |
| CCN1CCN(Cc2ccc(NC(=O)c3ccc(C)c(/C=C/c4cnc5[nH]ccc5c4OC)c3)cc2C(F)(F)F)CC1 [HG-6-64-1] | 2.95 µM | -96.2% |
| CC(C)(C)c1cc(C=C(C#N)C#N)cc(Br)c1O [AG-1024] | 26.3 µM | -86.1% |
| CCCCCNC(=O)N1CCC(CN(Cc2ccc(Cl)cc2)Cc2ccc([N+](=O)[O-])s2)C1 (stereo unspecified) [SR-9011] | 20.9 µM | -71% |
| NC\1=N\C(=O)N(\C=C1F)[C@H]2C[C@H](O)[C@@H](CO)O2 | 0.105 µM | -64% |
| O=C(Nc1ccc(OC(F)(F)F)cc1)c1sccc1NCc1ccnc2ccccc12 [OSI-930] | 10.5 µM | -77.4% |
| O=C(Nc1cccc(Cl)c1)Nc1ncc(CCNc2ncnc3ccsc23)s1 [SNS-314] | 18.6 µM | -91.8% |
| C[C@@]12C(=O)OC(=O)[C@]1(C)[C@H]1CC[C@@H]2O1 [Cantharidin] | 9.34 µM | -86.9% |
| COc1cc2c(cc1-c1c(C)noc1C)ncc1[nH]c(=O)n([C@H](C)c3ccccn3)c12 [I-BET151] | 1.32 µM | -77.4% |
| NC1=NC=CC2=C1N=C[N]2[C@@H]3\C=C(CO)/[C@@H](O)[C@H]3O [3-Deazaneplanocin A] | 0.59 µM | -55.4% |
| Cn1cc(-c2ccncc2)c(-c2ccc(OCc3ccc4ccccc4n3)cc2)n1 [MP-10] | 18.6 µM | -72.4% |
| C[N]1N=CC=C1NC2=NC=CC(=N2)C\3=C\C(=O)N(\C=C3)[C@H](CO)C4=CC(=C(Cl)C=C4)F [Ravoxertinib] | 14.8 µM | -116% |

| SMILES | AC50 cell viability [1] | efficacy [2] |
| --- | --- | --- |
| Cc1cnc(Nc2cccc(CN3CCOCC3)c2)nc1Nc1cccc([S+](=O)([O-])NC(C)(C)C)c1 [TG-89] | 1.66 µM | -35.5% |
| CC(C)(C)C[C@H]1N[C@@H](C(=O)N[C@H]2CC[C@H](O)CC2)[C@H](c2cccc(Cl)c2F)[C@@]12C(=O)Nc1cc(Cl)ccc12 | 4.17 µM | -91.1% |
| COC1=CC(c2cc3ccccc3[nH]2)=N/C1=C/c1[nH]c(C)cc1C [Obatoclax] | 1.66 µM | -90% |
| O=C(N[C@@H](c1ccccc1)[C@@H]1CCCCN1)c1cccc(C(F)(F)F)c1Cl | 20.9 µM | -108% |
| C=CC(=O)N1CCC(C2CCNc3c(C(N)=O)c(-c4ccc(Oc5ccccc5)cc4)nn32)CC1 (stereo unspecified) [BGB-3111] | 18.6 µM | -62.4% |
| O=C(Nc1ncc(SCCN2CCCC2)s1)[C@]1(c2ccc([S+](=O)([O-])C3CC3)cc2)C[C@H]1C1CCCCC1 | 18.6 µM | -95.8% |
| CN1CC[C@H]([C@@H](O)C1)C2=C(O)C=C(O)C3=C2O\C(=C/C3=O)C4=CC=CC=C4Cl [Flavopiridol] | 0.186 µM | -63.7% |
| C[N]1N=CC2=C1C=C(C(=C2)OC3=CC=C(NC(=O)\C4=C\C=C(\C)N(C4=O)C5=CC=C(F)C=C5)C=C3F)C6=C[NH]N=C6 [Merestinib] | 3.32 µM | -41.2% |
| COC1=CC=C2[N](CCCN(C)C)C=C(C2=C1)C/3=C(/C(=O)NC3=O)C4=C[NH]C5=C4C=CC=C5 [Go-6983] | 10.5 µM | -111% |
| N/C(=N\C(=O)c1nc(Cl)c(N)nc1N)NCc1ccccc1 [Benzamil] | 20.9 µM | -81% |
| Nc1nc2ccc(OC(F)(F)F)cc2s1 [Riluzole] | 10.5 µM | -59.1% |
| C=C1C[C@@H]2CC[C@@]34C[C@H]5O[C@H]6[C@@H](O3)[C@H]3O[C@H](CC[C@@H]3O[C@H]6[C@H]5O4)CC(=O)C[C@@H]3[C@@H](OC)[C@@H](C[C@H](O)CN)O[C@H]3C[C@H]3O[C@@H](CC[C@@H]1O2)C[C@@H](C)C3=C [Eribulin mesylate] | 0.00241 µM | -56.4% |
| CC(C)(O)c1cc2nc(-c3cnc(N)nc3)nc(N3CCOCC3)c2s1 [GNE-493] | 0.833 µM | -55.2% |
| CC[S+](=O)([O-])N1CC(CC#N)(n2cc(-c3ncnc4[nH]ccc34)cn2)C1 [Baricitinib] | 29.5 µM | -91.6% |
| CNCCN(C)Cc1c[nH]nc1-c1ccc(O[C@H]2C[C@H](OCCC3CCOCC3)C2)cc1 | 18.6 µM | -52% |
| Cc1ccc([C@@H]2O[C@H](CO)[C@@H](O)[C@H](O)[C@H]2O)cc1Cc1ccc(-c2ccc(F)cc2)s1 [Canagliflozin] | 23.5 µM | -83.7% |
| C[C@H](Cc1ccc(O)c(O)c1)[C@@H](C)Cc1ccc(O)c(O)c1 [Masoprocol] | 18.6 µM | -46.2% |
| CC(C)C[C@H](NC(=O)c1cc2ccccc2s1)C(=O)N1CCN(C(=O)[C@H](CO)N[S+](=O)([O-])c2ccc(Cl)cc2Cl)CC1 | 16.6 µM | -76.8% |
| CC(=O)C1CCC2C3CC\C4=C\C(=O)CCC4(C)C3CCC12C (stereo unspecified) [Progesterone] | 16.6 µM | -53.8% |
| CCc1ccc(N(CC(C)C)[S+](=O)([O-])c2ccc(OCC3CCOCC3)c(CO)c2)cc1 | 23.5 µM | -83.5% |

| SMILES | AC50 cell viability [1] | efficacy [2] |
| --- | --- | --- |
| Nc1nc(N)c(N=O)c(OCC2CCCCC2)n1 [NU-6027] | 13.2 µM | -64.3% |
| COc1ccc([S+](=O)([O-])Nc2cc(-c3c(O)ccc4ccccc34)c(O)c3ccccc23)cc1 [C-188-9] | 26.3 µM | -95.1% |
| CCN(CC)CCNc1ccc(C)c2sc3ccccc3c(=O)c12 [Lucanthone] | 14.8 µM | -119% |
| CN1CCC(C1CO)C2=C(O)C=C(O)C3=C2O\C(=C/C3=O)C4=CC=CC=C4Cl (stereo unspecified) [Riviciclib (P276-00)] | 0.372 µM | -73.4% |
| CO/C1=C/C(C)=C\[C@@H](C)[C@@H](O)[C@@H](C)C/C(C)=C\C=C/[C@H](OC)[C@@H]([C@@H](C)[C@@H](O)[C@H](C)[C@@]2(O)C[C@@H](O)[C@H](C)[C@@H](C(C)C)O2)OC1=O [Bafilomycin A1] | 0.035 µM | -81.9% |
| Fc1ccc(CNc2ncnc3ccc(F)cc23)cc1 [Spautin-1] | 1.48 µM | -34.2% |
| CC[C@@H](C)Nc1cc(C(=O)NC2CC3CCC(C2)N3c2ccc(C(=O)C3CC3)cn2)c(C)cc1C(N)=O (stereo partly specified) [XL-888] | 0.118 µM | -56.5% |
| C[N+](C)([O-])CCNc1ccc(NCC[N+](C)(C)[O-])c2c1C(=O)c1c(O)ccc(O)c1C2=O [Banoxantrone] | 2.09 µM | -45.2% |
| Cc1cc(OCCCc2c3n(c4c(-c5c(C)nn(C)c5C)c(Cl)ccc24)[C@H](C)CN(c2cn(C)c4ccc(C(=O)O)cc24)C3=O)cc(C)c1Cl | 16.6 µM | -93.6% |
| COc1cc(Nc2cnc(C#N)c(O[C@H](C)CN(C)C)n2)ncc1-c1cnn(C)c1 | 11.8 µM | -121% |
| COC1=C(OCCCN2CCOCC2)C=C3N=CC=C(OC4=CC=C(C=C4F)\C5=C\N=C(\NC6=CC=C(F)C=C6)N(C)C5=O)C3=C1 [AMG-51] | 16.6 µM | -136% |
| COc1cc2c(N3CCN(C(=O)Nc4ccc(OC(C)C)cc4)CC3)ncnc2cc1OCCCN1CCCCC1 [Tandutinib] | 18.6 µM | -76% |
| Oc1c(Cl)cc(Cl)c2cccnc12 [Chloroxine] | 13.2 µM | -86.7% |
| CC/1=C/C[C@]23O[C@@]2(C)CC[C@@H]4[C@H](OC(=O)C4=C)[C@@H]13 [Arglabin] | 14.8 µM | -79% |
| Cc1cc(Nc2nc(N[C@@H](C)c3ncc(F)cn3)ncc2Cl)n[nH]1 [AZD-1480] | 5.25 µM | -66.2% |
| COc1cc2ncnc(Oc3cccc(NC(=O)Nc4cc(C(C)(C)C(F)(F)F)on4)c3)c2cc1OC | 3.72 µM | -66.5% |
| CN(C)C/C=C/C(=O)Nc1cc2c(Nc3ccc(F)c(Cl)c3)ncnc2cc1O[C@H]1CCOC1 [Afatinib] | 4.68 µM | -100% |
| CN(C)c1ccc(-c2nc3c(N4CCN(CC(=O)Nc5nccs5)CC4)c(Cl)cnc3[nH]2)cc1 | 0.723 µM | -34.1% |
